Paper PMC5412352 (International Journal of Molecular Sciences, 2017)
Like-named read-outs stand apart in the source and are kept apart here.

Tests used:
[1] = HPLC-based chromatographic hydrophobicity index on immobilized artificial membranes (CHI IAM); type: physicochemical; conditions: IAM PC DD2 column, acetonitrile / 50 mM ammonium acetate gradient
From the text: Physicochemical properties of a drug such as lipophilicity and non-specific binding to membranes and plasma proteins are crucial parameters of a potential radiotracer, in particular if it is supposed to pass the blood brain barrier (BBB). The lipophilicity (logD7.4) was estimated using the commercially available ACD/Labs-12.5 software and the non-specific binding was estimated by the high-performance liquid chromatography (HPLC)-based hydrophobicity index at immobilized artificial membranes (CHI IAM) for seven fluorine substituted candidate molecules and (S)-13 without fluorine (Table 3).
The chromatographic hydrophobicity index on immobilized artificial membranes (CHI IAM) was experimentally determined by a HPLC method described by Valko and co-workers using a IAM PC DD2 column (100 × 4.6 mm, […], Regis Technologies, IL, USA), a gradient of acetonitrile, and 50 mM ammonium acetate as eluent and acetanilide, acetophenone, 1,4-dinitrobenzene, anisole propiophenone, valerophenone, and octanophenone as references.

[2] = molecular target: human GhrR (hGhrR-eYFP, HEK293 cell membranes) (Homo sapiens, UniProt Q92847); experiment: Competitive radioligand binding assay with [125I-His9]ghrelin at hGhrR membranes; conditions: for fold higher IC50 than (S)-9: hGhrR binding IC50 relative to starting compound (S)-9
Protocol: Each concentration was tested in duplicate. The membrane-bound radioligand was trapped on a Filtermat B (PerkinElmer) pre-soaked with 0.1% polyethylenimine in H2O by using a filtermat harvester (PerkinElmer). After drying for 20 min at 55 °C, a Meltilex scintillation sheet (PerkinElmer) was melted onto the filtermat and the samples were counted in a Microbeta scintillation counter (PerkinElmer).

[3] = molecular target: T1, hGhrR (COS7 cells stably transfected with hGhrR) (Homo sapiens, UniProt Q92847); experiment: Inositol phosphate accumulation assay, antagonistic potency with 10^-8 M ghrelin; type: cell-based; conditions: for Emax: COS-7, read-out: Emax (antagonistic efficacy)
T1 construct: expressed in transfected cells
Protocol: Antagonistic properties at the hGhrR
antagonistic potency in an inositol phosphate accumulation assay (Table S1). The receptor was
Table S1. Inositol phosphate accumulation assay to determine antagonistic potencies of candidate
Compounds were analyzed by inositol phosphate accumulation in COS7 cells stably

[4] = molecular target: hGhrR (COS7 cells stably expressing hGhrR-eYFP) (Homo sapiens, UniProt Q92847); experiment: cell-based; conditions: for Emax: COS-7, mean ± SEM, refers to ghrelin Emax as 100%, 0% = constitutive receptor activity
Protocol: For that purpose, the inositol phosphate accumulation assay was used [43, 44].
Briefly, 60,000 to 80,000 cells/well of COS7 cells, stably expressing the fusion protein hGhrR-eYFP, were seeded in 48-well plates in Dulbecco’s modified Eagle’s medium (DMEM) with 10% fetal calf serum (FCS) and 0.4 mg/mL hygromycin B. The next day, the cells were labeled with [2-^3H]-myo-inositol (2 µCi/mL, PerkinElmer). […] Cell debris was removed and the supernatant purified on an anion-exchange resin (BioRad, Hercules, CA, USA). The obtained data were analyzed with GraphPad Prism 5.0 (GraphPad Software, San Diego, CA, USA). […] EC50/IC50 values were calculated from at least three independent experiments. Emax is defined as the difference between maximal and minimal effect in presence of the compound.

[5] = molecular target: T2, human α3β4 nAChR (Homo sapiens, UniProt P30926+P32297); experiment: Selectivity radioligand displacement, [3H]epibatidine, transfected HEK cells; type: binding; conditions: read-out: Ki at α3β4 nAChRs
T2 construct: expressed in transfected cells; host or cells: HEK cells (by courtesy of Dominik Feuerbach, Novartis), homogenate
Protocol: […]
(§1) The incubations were terminated by rapid filtration via glass-fiber filters presoaked in PEI (0.3%, 60 min at rt), and the filter-bound radioactivity was counted by liquid scintillation counting (Tricarb, PerkinElmer).

[6] = molecular target: T3, rat σ2 receptor (Rattus norvegicus, UniProt Q5U3Y7); experiment: Selectivity radioligand displacement, [3H]DTG, rat liver homogenate; type: binding; conditions: [3H]DTG + 1 µM dextrallorphan
T3 construct: rat σ2 receptor = rat liver homogenate; from tissue; host or cells: rat liver homogenate
T3 sequence (Q5U3Y7 1-176): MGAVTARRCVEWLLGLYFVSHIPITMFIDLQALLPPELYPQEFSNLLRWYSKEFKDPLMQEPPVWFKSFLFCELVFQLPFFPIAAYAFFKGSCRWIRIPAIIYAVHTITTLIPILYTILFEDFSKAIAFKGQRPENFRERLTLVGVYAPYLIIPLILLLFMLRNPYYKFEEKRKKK
Protocol: […]
as §1

[7] = 5 min pre-stimulation with compound, then 10^-8 M ghrelin, read-out: IC50 (antagonistic potency)
[8] = pEC50, mean ± SEM, 2 h stimulation in absence of ghrelin
[9] = EC50, 2 h stimulation in absence of ghrelin, COS7-hGhrR

T1 sequence (Q92847 whole entry): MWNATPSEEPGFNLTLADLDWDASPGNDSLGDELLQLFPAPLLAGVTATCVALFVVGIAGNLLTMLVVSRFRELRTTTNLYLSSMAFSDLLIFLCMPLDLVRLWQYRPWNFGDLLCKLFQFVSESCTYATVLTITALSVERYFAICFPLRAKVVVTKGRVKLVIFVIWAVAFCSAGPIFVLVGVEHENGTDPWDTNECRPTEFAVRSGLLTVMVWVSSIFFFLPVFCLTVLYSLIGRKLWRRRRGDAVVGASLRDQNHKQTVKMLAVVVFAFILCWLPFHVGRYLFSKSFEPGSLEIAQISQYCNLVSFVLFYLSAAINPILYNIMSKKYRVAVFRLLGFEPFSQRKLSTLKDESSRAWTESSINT
Chain of human GhrR (hGhrR-eYFP, HEK293 cell membranes) (Q92847 whole entry): as above
Chain of hGhrR (COS7 cells stably expressing hGhrR-eYFP) (Q92847 whole entry): as above
T2 sequence (P32297 32-505): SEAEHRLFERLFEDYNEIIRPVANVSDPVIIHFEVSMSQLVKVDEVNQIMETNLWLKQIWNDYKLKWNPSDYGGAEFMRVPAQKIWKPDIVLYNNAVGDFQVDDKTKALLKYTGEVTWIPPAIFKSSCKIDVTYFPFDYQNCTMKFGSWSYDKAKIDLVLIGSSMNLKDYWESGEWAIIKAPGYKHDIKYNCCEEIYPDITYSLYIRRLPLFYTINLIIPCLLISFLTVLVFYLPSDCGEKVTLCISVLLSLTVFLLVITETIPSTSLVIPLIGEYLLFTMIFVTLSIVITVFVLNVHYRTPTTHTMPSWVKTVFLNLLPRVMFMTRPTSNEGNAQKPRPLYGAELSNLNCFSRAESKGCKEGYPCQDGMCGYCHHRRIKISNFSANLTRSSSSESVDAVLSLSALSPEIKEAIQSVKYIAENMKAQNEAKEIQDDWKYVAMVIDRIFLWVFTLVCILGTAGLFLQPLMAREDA
T2 sequence (P30926 22-498): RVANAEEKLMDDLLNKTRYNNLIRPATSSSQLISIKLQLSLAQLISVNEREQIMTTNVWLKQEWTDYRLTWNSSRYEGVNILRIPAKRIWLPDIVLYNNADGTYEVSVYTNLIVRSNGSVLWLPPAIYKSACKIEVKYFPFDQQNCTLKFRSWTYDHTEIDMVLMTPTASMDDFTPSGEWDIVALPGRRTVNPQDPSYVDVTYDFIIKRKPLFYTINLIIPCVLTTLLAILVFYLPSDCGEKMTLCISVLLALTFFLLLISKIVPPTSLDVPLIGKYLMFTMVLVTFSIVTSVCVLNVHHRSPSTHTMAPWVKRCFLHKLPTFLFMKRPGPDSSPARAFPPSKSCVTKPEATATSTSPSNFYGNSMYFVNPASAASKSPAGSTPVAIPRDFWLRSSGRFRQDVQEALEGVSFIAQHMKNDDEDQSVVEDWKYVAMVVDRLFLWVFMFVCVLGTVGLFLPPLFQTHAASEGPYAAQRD

Compound | CHI IAM [1] | IC50 [2] | fold higher IC50 than (S)-9 [2] | IC50 [3, 7] | Emax [3] | Emax [4] | EC50 [4, 8] | Ki [5] | Ki [6] | EC50 [4, 9] | IC50 ([3]; mean ± SEM, with 10^-8 M ghrelin, read-out: pIC50 (antagonistic potency) (converted))
Cc1nc2ccc(Oc3ccc(Br)cc3F)nc2c(=O)n1C[C@H]1CCCN(CCF)C1 [(S)-10, (S)-6-(4-Bromo-2-fluorophenoxy)-3-((1-(2-fluoroethyl)piperidin-3-yl)methyl)-2-methylpyrido[3,2-d]pyrimidin-4(3H)-one] | 39.6 | 69 nM | about 30 fold | 345 nM | 22 ± 4% | ~60% | 1.58 nM |  |  |  | 
Cc1nc2ccc(Oc3ccc(Br)cc3F)nc2c(=O)n1C[C@H]1CCCN(CCCF)C1 [(S)-11, (S)-6-(4-Bromo-2-fluorophenoxy)-3-((1-(3-fluoropropyl)piperidin-3-yl)methyl)-2-methylpyrido[3,2-d]pyrimidin-4(3H)-one] | 42.2 | 66 nM | about 30 fold | 349 nM | 56 ± 10% | ~60% | 2.88 nM | 27 ± 8 nM |  |  | 
Cc1nc2ccc(Oc3ccc(Br)cc3F)nc2c(=O)n1C[C@H]1CCCN(CCCCF)C1 [(S)-12, (S)-6-(4-Bromo-2-fluorophenoxy)-3-((1-(4-fluorobutyl)piperidin-3-yl)methyl)-2-methylpyrido[3,2-d]pyrimidin-4(3H)-one] | 43.3 | 574 nM |  |  |  |  |  | 64 ± 14 nM |  |  | 
Cc1nc2ccc(Oc3ccc(Br)cc3F)nc2c(=O)n1C[C@@H]1CCCN(C(C)C)C1 [(R)-9, (R)-6-(4-Bromo-2-fluorophenoxy)-3-((1-isopropylpiperidin-3-yl)methyl)-2-methylpyrido[3,2-d]pyrimidin-4(3H)-one] | 42.8 | 3.89 nM |  | 17.5 nM | 45 ± 5% | ~60% | 0.55 nM |  | 53 ± 7 nM | 0.6 nM | 
Cc1nc2ccc(Oc3ccc(Br)cc3F)nc2c(=O)n1C[C@H]1CCCN(C(C)CF)C1 (stereo partly drawn) [(S)-13, 6-(4-Bromo-2-fluorophenoxy)-3-(((3S)-1-(1-fluoropropan-2-yl)piperidin-3-yl)methyl)-2-methylpyrido[3,2-d]pyrimidin-4(3H)-one] | 42.8 | 12.6 nM |  | 207 nM | 31 ± 5% | ~60% | 1.35 nM |  |  | 1.4 nM | 204 nM

The remaining lines, values ahead:

CHI IAM [1] | IC50 [2] | fold higher IC50 than (S)-9 [2] | IC50 [3, 7] | Emax [3] | Emax [4] | EC50 [4, 8] | Ki [5] | Ki [6] | EC50 [4, 9] | IC50 ([3]; mean ± SEM, with 10^-8 M ghrelin, read-out: pIC50 (antagonistic potency) (converted)) | Compound
42.8 | 12.3 nM |  | 123 nM | 57 ± 6% | 42 ± 4% | 2.14 nM |  |  |  |  | Cc1nc2ccc(Oc3ccc(Br)cc3)nc2c(=O)n1C[C@H]1CCCN(C(C)C)C1 [(S)-14]
 | 151 nM |  |  |  |  |  |  |  |  |  | CC(C)N1CCC[C@H](Cn2c(F)nc3ccc(Oc4ccc(Br)cc4F)nc3c2=O)C1 [(S)-17, (S)-6-(4-Bromo-2-fluorophenoxy)-2-fluoro-3-((1-isopropylpiperidin-3-yl)methyl)pyrido[3,2-d]pyrimidin-4(3H)-one]
42.3 | 2.69 nM |  | 28.7 nM | 65 ± 5% | 40 ± 4% | 1.02 nM |  |  |  |  | CC(C)N1CCC[C@H](Cn2cnc3ccc(Oc4ccc(Br)cc4F)nc3c2=O)C1 [(S)-16, (S)-6-(4-Bromo-2-fluorophenoxy)-3-((1-isopropylpiperidin-3-yl)methyl)pyrido[3,2-d]pyrimidin-4(3H)-one]
